{"source": "patent US20260285850A1", "about": "“SUBSTITUTED OXAZOLIDINONES AND IMIDAZOLINONES AS HERBICIDES” (FMC CORPORATION, priority 2023, published 2026)", "type_in_all_cases": "in vivo", "key": {"[1]": {"system": "barnyardgrass (Echinochloa crus-galli)", "assay": "Test A preemergence soil spray, visual injury rating 0-100", "conditions": "10 days, 0 = no effect, 100 = complete control", "text": "(§1) Seeds of plant species selected from barnyardgrass (Echinochloa crus-galli), blackgrass (Alopecurus myosuroides), corn (Zea mays), foxtail, giant (giant foxtail, Setaria faberi), green foxtail (Setaria viridis), goosegrass (Eleusine indica), kochia (Bassia scoparia), oat, wild (wild oat, Avena fatua), palmer (palmer amaranth, palmer pigweed, Amaranthus palmeri), ragweed (common ragweed, Ambrosia artemisiifolia), ryegrass, Italian (italian ryegrass, Lolium multiflorum), soybean (Glycine max) and wheat (Triticum aestivum) were planted into a blend of loam soil and sand and treated preemergence with a directed soil spray using test chemicals formulated in a non-phytotoxic solvent mixture which included a surfactant.\n(§2) At the same time, plants selected from these crops and weed species and also galium (catchweed bedstraw, Galium aparine) and horseweed (Erigeron canadensis) were planted in pots containing the same blend of loam soil and sand and treated with postemergence applications of test chemicals formulated in the same manner. Plants ranged in height from 2 to 10 cm and were in the one- to two-leaf stage for the postemergence treatment. Treated plants and untreated controls were maintained in a greenhouse for 10 days, after which time all treated plants were compared to untreated controls and visually evaluated for injury. Plant response ratings, summarized in Table A, are based on a 0 to 100 scale where 0 is no effect and 100 is complete control. A dash (-) response means no test result."}, "[2]": {"system": "blackgrass (Alopecurus myosuroides)", "assay": "Test A preemergence soil spray, visual injury rating 0-100", "conditions": "10 days, 0 = no effect, 100 = complete control", "text": "as §1, §2"}, "corn (Zea mays) [3]": {"system": "corn (Zea mays)", "assay": "Test A preemergence soil spray, visual injury rating 0-100", "conditions": "10 days, 0 = no effect, 100 = complete control", "text": "as §1, §2"}, "[4]": {"system": "green foxtail (Setaria viridis)", "assay": "Test A preemergence soil spray, visual injury rating 0-100", "conditions": "10 days, 0 = no effect, 100 = complete control", "text": "as §1, §2"}, "kochia (Bassia scoparia) [5]": {"system": "kochia (Bassia scoparia)", "assay": "Test A preemergence soil spray, visual injury rating 0-100", "conditions": "10 days, 0 = no effect, 100 = complete control", "text": "as §1, §2"}, "[6]": {"system": "oat, wild (wild oat, Avena fatua)", "assay": "Test A preemergence soil spray, visual injury rating 0-100", "conditions": "10 days, 0 = no effect, 100 = complete control", "text": "as §1, §2"}, "[7]": {"system": "palmer (palmer amaranth, palmer pigweed, Amaranthus palmeri)", "assay": "Test A preemergence soil spray, visual injury rating 0-100", "conditions": "10 days, 0 = no effect, 100 = complete control", "text": "as §1, §2"}, "[8]": {"system": "ragweed (common ragweed, Ambrosia artemisiifolia)", "assay": "Test A preemergence soil spray, visual injury rating 0-100", "conditions": "10 days, 0 = no effect, 100 = complete control", "text": "as §1, §2"}, "[9]": {"system": "ryegrass, Italian (italian ryegrass, Lolium multiflorum)", "assay": "Test A preemergence soil spray, visual injury rating 0-100", "conditions": "10 days, 0 = no effect, 100 = complete control", "text": "as §1, §2"}, "soybean (Glycine max) [10]": {"system": "soybean (Glycine max)", "assay": "Test A preemergence soil spray, visual injury rating 0-100", "conditions": "10 days, 0 = no effect, 100 = complete control", "text": "as §1, §2"}, "[11]": {"system": "wheat (Triticum aestivum)", "assay": "Test A preemergence soil spray, visual injury rating 0-100", "conditions": "10 days, 0 = no effect, 100 = complete control", "text": "as §1, §2"}, "[12]": {"system": "barnyardgrass (Echinochloa crus-galli)", "assay": "Test A postemergence application, visual injury rating 0-100", "conditions": "10 days", "text": "as §1, §2"}, "[13]": {"system": "blackgrass (Alopecurus myosuroides)", "assay": "Test A postemergence application, visual injury rating 0-100", "conditions": "10 days", "text": "as §1, §2"}, "corn (Zea mays) [14]": {"system": "corn (Zea mays)", "assay": "Test A postemergence application, visual injury rating 0-100", "conditions": "10 days", "text": "as §1, §2"}, "[15]": {"system": "green foxtail (Setaria viridis)", "assay": "Test A postemergence application, visual injury rating 0-100", "conditions": "10 days", "text": "as §1, §2"}, "[16]": {"system": "horseweed (Erigeron canadensis)", "assay": "Test A postemergence application, visual injury rating 0-100", "conditions": "10 days", "text": "as §1, §2"}, "kochia (Bassia scoparia) [17]": {"system": "kochia (Bassia scoparia)", "assay": "Test A postemergence application, visual injury rating 0-100", "conditions": "10 days", "text": "as §1, §2"}, "[18]": {"system": "oat, wild (wild oat, Avena fatua)", "assay": "Test A postemergence application, visual injury rating 0-100", "conditions": "10 days", "text": "as §1, §2"}, "[19]": {"system": "palmer (palmer amaranth, palmer pigweed, Amaranthus palmeri)", "assay": "Test A postemergence application, visual injury rating 0-100", "conditions": "10 days", "text": "as §1, §2"}, "[20]": {"system": "ragweed (common ragweed, Ambrosia artemisiifolia)", "assay": "Test A postemergence application, visual injury rating 0-100", "conditions": "10 days", "text": "as §1, §2"}, "[21]": {"system": "ryegrass, Italian (italian ryegrass, Lolium multiflorum)", "assay": "Test A postemergence application, visual injury rating 0-100", "conditions": "10 days", "text": "as §1, §2"}, "soybean (Glycine max) [22]": {"system": "soybean (Glycine max)", "assay": "Test A postemergence application, visual injury rating 0-100", "conditions": "10 days", "text": "as §1, §2"}, "[23]": {"system": "wheat (Triticum aestivum)", "assay": "Test A postemergence application, visual injury rating 0-100", "conditions": "10 days", "text": "as §1, §2"}, "[24]": {"system": "barnyardgrass (Echinochloa crusgalli)", "assay": "Test B flooded paddy test, visual plant response rating 0-100", "conditions": "250 g ai/ha, Flood, applied to paddy water, evaluated after 13 days", "procedure": "(§3) Plant species in the flooded paddy test selected from barnyardgrass (Echinochloa crusgalli), ducksalad (Heteranthera limosa), rice (Oryza sativa), and sedge, umbrella (small-flower umbrella sedge, Cyperus difformis) were grown to the 2-leaf stage for testing. At time of treatment, test pots were flooded to 3 cm above the soil surface, treated by application of test compounds directly to the paddy water, and then maintained at that water depth for the duration of the test. Treated plants and controls were maintained in a greenhouse for 13 days, after which time all species were compared to controls and visually evaluated. […] A dash (-) response means no test result."}, "[25]": {"system": "ducksalad (Heteranthera limosa)", "assay": "Test B flooded paddy test, visual plant response rating 0-100", "conditions": "250 g ai/ha, Flood, applied to paddy water, evaluated after 13 days", "procedure": "as §3"}, "rice (Oryza sativa)": {"system": "rice (Oryza sativa)", "assay": "Test B flooded paddy test, visual plant response rating 0-100", "conditions": "250 g ai/ha, Flood, applied to paddy water, evaluated after 13 days", "procedure": "as §3"}, "[26]": {"system": "sedge, umbrella (small-flower umbrella sedge, Cyperus difformis)", "assay": "Test B flooded paddy test, visual plant response rating 0-100", "conditions": "250 g ai/ha, Flood, applied to paddy water, evaluated after 13 days", "procedure": "as §3"}, "[27]": {"conditions": "31 g ai/ha, postemergence, 0 = no effect, 100 = complete control"}, "[28]": {"conditions": "Postemergence, 125 g ai/ha, 0 is no effect, 100 is complete control"}}, "data": [{"smiles": "CCOC(=O)C1CCC(NC(=O)C2(C)CN(c3cc(F)cc(F)c3)C(=O)O2)C1", "note": "(centres unmarked) [Compound 11]", "values": [{"measurement": "Barnyardgrass plant response rating (0-100)", "setting": "[1]; 31 g ai/ha", "result": 0}, {"measurement": "Barnyardgrass plant response rating (0 to 100 scale)", "setting": "[1]; 125 g ai/ha", "result": 100}, {"measurement": "Blackgrass plant response rating (0-100)", "setting": "[2]; 31 g ai/ha", "result": 20}, {"measurement": "Blackgrass plant response rating (0 to 100 scale)", "setting": "[2]; 125 g ai/ha", "result": 90}, {"measurement": "Corn plant response rating (0-100)", "setting": "corn (Zea mays) [3]; 31 g ai/ha", "result": 0}, {"measurement": "Corn plant response rating (0 to 100 scale)", "setting": "corn (Zea mays) [3]; 125 g ai/ha", "result": 50}, {"measurement": "Foxtail, Green plant response rating (0-100)", "setting": "[4]; 31 g ai/ha", "result": 0}, {"measurement": "Foxtail, Green plant response rating (0 to 100 scale)", "setting": "[4]; 125 g ai/ha", "result": 100}, {"measurement": "Kochia plant response rating (0-100)", "setting": "kochia (Bassia scoparia) [5]; 31 g ai/ha", "result": 0}, {"measurement": "Kochia plant response rating (0 to 100 scale)", "setting": "kochia (Bassia scoparia) [5]; 125 g ai/ha", "result": 50}, {"measurement": "Oat, Wild plant response rating (0-100)", "setting": "[6]; 31 g ai/ha", "result": 20}, {"measurement": "Oat, Wild plant response rating (0 to 100 scale)", "setting": "[6]; 125 g ai/ha", "result": 80}, {"measurement": "Amaranth, Palmer plant response rating (0-100)", "setting": "[7]; 31 g ai/ha", "result": 0}, {"measurement": "Amaranth, Palmer plant response rating (0 to 100 scale)", "setting": "[7]; 125 g ai/ha", "result": 30}, {"measurement": "Ragweed plant response rating (0-100)", "setting": "[8]; 31 g ai/ha", "result": 0}, {"measurement": "Ragweed plant response rating (0 to 100 scale)", "setting": "[8]; 125 g ai/ha", "result": 70}, {"measurement": "Ryegrass, Italian plant response rating (0-100)", "setting": "[9]; 31 g ai/ha", "result": 40}, {"measurement": "Ryegrass, Italian plant response rating (0 to 100 scale)", "setting": "[9]; 125 g ai/ha", "result": 90}, {"measurement": "Soybean plant response rating (0-100)", "setting": "soybean (Glycine max) [10]; 31 g ai/ha", "result": 0}, {"measurement": "Soybean plant response rating (0 to 100 scale)", "setting": "soybean (Glycine max) [10]; 125 g ai/ha", "result": 20}, {"measurement": "Wheat plant response rating (0-100)", "setting": "[11]; 31 g ai/ha", "result": 90}, {"measurement": "Wheat plant response rating (0 to 100 scale)", "setting": "[11]; 125 g ai/ha", "result": 100}, {"measurement": "Barnyardgrass plant response rating (0-100)", "setting": "[12]; [27]", "result": 60}, {"measurement": "Barnyardgrass plant response rating (0 to 100 scale)", "setting": "[12]; [28]", "result": 100}, {"measurement": "Blackgrass plant response rating (0-100)", "setting": "[13]; [27]", "result": 30}, {"measurement": "Blackgrass plant response rating (0 to 100 scale)", "setting": "[13]; [28]", "result": 90}, {"measurement": "Corn plant response rating (0-100)", "setting": "corn (Zea mays) [14]; [27]", "result": 10}, {"measurement": "Corn plant response rating (0 to 100 scale)", "setting": "corn (Zea mays) [14]; [28]", "result": 80}, {"measurement": "Foxtail, Green plant response rating (0-100)", "setting": "[15]; [27]", "result": 30}, {"measurement": "Foxtail, Green plant response rating (0 to 100 scale)", "setting": "[15]; [28]", "result": 90}, {"measurement": "Horseweed plant response rating (0-100)", "setting": "[16]; [27]", "result": 30}, {"measurement": "Horseweed plant response rating (0 to 100 scale)", "setting": "[16]; [28]", "result": 20}, {"measurement": "Kochia plant response rating (0-100)", "setting": "kochia (Bassia scoparia) [17]; [27]", "result": 20}, {"measurement": "Kochia plant response rating (0 to 100 scale)", "setting": "kochia (Bassia scoparia) [17]; [28]", "result": 80}, {"measurement": "Oat, Wild plant response rating (0-100)", "setting": "[18]; [27]", "result": 80}, {"measurement": "Oat, Wild plant response rating (0 to 100 scale)", "setting": "[18]; [28]", "result": 90}, {"measurement": "Amaranth, Palmer plant response rating (0-100)", "setting": "[19]; [27]", "result": 30}, {"measurement": "Amaranth, Palmer / Pigweed, Palmer plant response rating (0 to 100 scale)", "setting": "[19]; [28]", "result": 60}, {"measurement": "Ragweed plant response rating (0-100)", "setting": "[20]; [27]", "result": 0}, {"measurement": "Ragweed plant response rating (0 to 100 scale)", "setting": "[20]; [28]", "result": 0}, {"measurement": "Ryegrass, Italian plant response rating (0-100)", "setting": "[21]; [27]", "result": 50}, {"measurement": "Ryegrass, Italian plant response rating (0 to 100 scale)", "setting": "[21]; [28]", "result": 70}, {"measurement": "Soybean plant response rating (0-100)", "setting": "soybean (Glycine max) [22]; [27]", "result": 50}, {"measurement": "Soybean plant response rating (0 to 100 scale)", "setting": "soybean (Glycine max) [22]; [28]", "result": 60}, {"measurement": "Wheat plant response rating (0-100)", "setting": "[23]; [27]", "result": 80}, {"measurement": "Wheat plant response rating (0 to 100 scale)", "setting": "[23]; [28]", "result": 90}, {"measurement": "Plant response rating, Barnyardgrass (0 to 100 scale, 0 is no effect and 100 is complete control)", "setting": "[24]", "result": 50}, {"measurement": "Plant response rating, Ducksalad (0 to 100 scale, 0 is no effect and 100 is complete control)", "setting": "[25]", "result": 65}, {"measurement": "Plant response rating, Rice (0 to 100 scale, 0 is no effect and 100 is complete control)", "setting": "rice (Oryza sativa)", "result": 25}, {"measurement": "Plant response rating, Sedge, Umbrella (0 to 100 scale, 0 is no effect and 100 is complete control)", "setting": "[26]", "result": 60}]}]}
